We go through 23 compounds from patent US20070213359A1 (ACADIA Pharmaceuticals Inc., priority 2005, published 2007).

T1 sequence (Q92847 whole entry): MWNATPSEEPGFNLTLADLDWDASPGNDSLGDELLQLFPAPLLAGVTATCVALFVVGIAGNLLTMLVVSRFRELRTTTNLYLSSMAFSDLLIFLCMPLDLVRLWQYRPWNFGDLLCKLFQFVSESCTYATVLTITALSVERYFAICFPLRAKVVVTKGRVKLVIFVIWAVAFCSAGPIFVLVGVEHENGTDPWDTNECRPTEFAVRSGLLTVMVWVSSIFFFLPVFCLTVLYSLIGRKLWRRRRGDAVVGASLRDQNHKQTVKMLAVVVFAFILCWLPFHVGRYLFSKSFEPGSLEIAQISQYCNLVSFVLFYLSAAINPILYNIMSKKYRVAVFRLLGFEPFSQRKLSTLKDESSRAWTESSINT

The target of one assay is Ghrelin receptor (Homo sapiens, UniProt Q92847). Nature of the assay: Receptor Selection and Amplification Technology (R-SAT) assay. The class given is cell-based. Details: expressed in transfected cells; host or cells: NIH3T3.
Sequence of Ghrelin receptor (Q92847 whole entry): as above
Settings: not given
For the compound `O=C(NCc1cccc(Cl)c1)c1cn(CCCN2CCC(Oc3ccc(F)cc3)CC2)c2ccccc12.O=C(O)C(=O)O` [drawing 596], the “RSAT Eff(%)” value is on record as 142%.

The assay is the same for the next values; noted with them: RSAT pIC50.
The compound `CCCCC1CCN(CCCn2cc(C(=O)NCc3cccc(Cl)c3)c3cccc(OC)c32)CC1` gave an IC50 of 3.98 nM.

Still in this assay, the particulars now being: […]; '—' not defined (nd used separately); read-out: RSAT pIC50 (converted).
On to `COc1cccc2c(C(=O)NCc3cccc(C)c3)cn(CCCN3C4CCC3CC(Oc3ccc(Cl)cc3)C4)c12` (stereo not drawn), for which the IC50 is 0.631 nM.

As to `COc1cccc2c(C(=O)C3CC3)cn(CCCN3CCCN(Cc4ccccc4Cl)CC3)c12`, the IC50 is 0.794 nM.

`COc1cccc2c(C(=O)NCc3cccc(Cl)c3)cn(CCCN3C4CCC3CC(CCc3ccccc3)C4)c12` (stereo not drawn): the IC50 is 1 nM.

`CCCCC1CCN(CCCn2cc(C(=O)C3CC3)c3cccc(OC)c32)CC1`: the IC50 is 3.98 nM.

On to `CCCCC1CCN(CCCn2cc(C(=O)c3ccccc3)c3cccc(OC)c32)CC1`, for which the IC50 is 5.01 nM.

As to `CC(=O)c1cn(CCCN2CCC(c3nc4ccccc4s3)CC2)c2c(Cl)cccc12`, the IC50 was 5.01 nM.

Turning to `COc1ccccc1C1CCN(CCCn2cc(C(=O)C3CC3)c3cccc(OC)c32)CC1`, the IC50 is 5.01 nM.

With `COc1cccc2c(C(=O)NCC(C)C)cn(CCCN3C4CCC3CC(CC(=O)c3ccccc3)C4)c12` (stereo not drawn), the IC50 is 7.94 nM.

As for `COc1cccc2c(C(=O)NCc3cccc(C)c3)cn(CCCN3CCC(Oc4ccc(Cl)cc4)CC3)c12`, the IC50 is 7.94 nM.

For `COc1cccc2c(C(=O)C3CC3)cn(CCCN3C4CCC3CC(CC(=O)c3ccc(Cl)cc3)C4)c12` (stereo not drawn), the IC50 was 7.94 nM.

On to `CC(=O)c1cn(CCCN2C3CCC2CC(CC(=O)c2ccccc2)C3)c2c(Br)cccc12` (stereo not drawn), for which the IC50 was 7.94 nM.

Consider `COc1cccc2c(C(=O)NCc3cccc(C)c3)cn(CCCN3C4CCC3CC(CC(=O)c3ccc(Cl)cc3)C4)c12` (stereo not drawn), for which the IC50 was 10 nM.

Turning to `COc1cccc2c(C(=O)NCc3cccc(C)c3)cn(CCCN3CCC(Oc4ccccc4Cl)CC3)c12`, the IC50 is 12.6 nM.

As to `COc1cccc2c(C(=O)NCc3cccc(C)c3)cn(CCCN3CCCN(CCc4ccccc4)CC3)c12`, the IC50 is 12.6 nM.

For `COc1cccc2c(C(=O)NCc3cccc(C)c3)cn(CCCN3CCCN(Cc4ccccc4Cl)CC3)c12`, the IC50 is 15.8 nM.

In the case of `COc1cccc2c(C(=O)NCc3cccc(C)c3)cn(CCCN3CCCN(Cc4ccc(F)cc4)CC3)c12`, the IC50 is 15.8 nM.

Consider `COc1cccc2c(C(C)=O)cn(CCCN3CCC(N(C4CC4)S(=O)(=O)c4ccccc4)CC3)c12`, for which the IC50 was 15.8 nM.

`COc1cccc2c(C(=O)c3ccccc3)cn(CCCN3CCCN(CCc4ccccc4)CC3)c12`: the IC50 was 15.8 nM.

`COc1cccc2c(C(=O)NCc3cccc(Cl)c3)cn(CCCN3CCCN(CCc4ccccc4)CC3)c12`: the IC50 was 20 nM.

Consider `COc1cccc2c(C(=O)C3CC3)cn(CCCN3CCN(CCOc4ccc(Cl)cc4)CC3)c12`, for which the IC50 was 20 nM.

In the case of `COc1cccc2c(C(C)=O)cn(CCCN3CCC(Oc4ccc(F)cc4)CC3)c12` [drawing 256], the IC50 was 3.98 nM.

The assay is the same for the next values; noted with them: read-out: RSAT Eff(%).
`COc1cccc2c(C(=O)NCc3cccc(C)c3)cn(CCCN3C4CCC3CC(Oc3ccc(Cl)cc3)C4)c12` (stereo not drawn): the Emax amounted to 92%.

Regarding `COc1cccc2c(C(=O)C3CC3)cn(CCCN3CCCN(Cc4ccccc4Cl)CC3)c12`, the Emax stood at 99%.

Regarding `COc1cccc2c(C(=O)NCc3cccc(Cl)c3)cn(CCCN3C4CCC3CC(CCc3ccccc3)C4)c12` (stereo not drawn), the Emax stood at 115%.

`CCCCC1CCN(CCCn2cc(C(=O)NCc3cccc(Cl)c3)c3cccc(OC)c32)CC1`: the Emax is 94%.

For the compound `CCCCC1CCN(CCCn2cc(C(=O)C3CC3)c3cccc(OC)c32)CC1`, the Emax was 95%.

With `CCCCC1CCN(CCCn2cc(C(=O)c3ccccc3)c3cccc(OC)c32)CC1`, the Emax turned out to be 98%.

Turning to `CC(=O)c1cn(CCCN2CCC(c3nc4ccccc4s3)CC2)c2c(Cl)cccc12`, the Emax was 117%.

With `COc1ccccc1C1CCN(CCCn2cc(C(=O)C3CC3)c3cccc(OC)c32)CC1`, the Emax worked out at 102%.

As to `COc1cccc2c(C(=O)NCC(C)C)cn(CCCN3C4CCC3CC(CC(=O)c3ccccc3)C4)c12` (stereo not drawn), the Emax came to 145%.

`COc1cccc2c(C(=O)NCc3cccc(C)c3)cn(CCCN3CCC(Oc4ccc(Cl)cc4)CC3)c12`: the Emax was determined as 115%.

For `COc1cccc2c(C(=O)C3CC3)cn(CCCN3C4CCC3CC(CC(=O)c3ccc(Cl)cc3)C4)c12` (stereo not drawn), the Emax amounted to 70%.

For `CC(=O)c1cn(CCCN2C3CCC2CC(CC(=O)c2ccccc2)C3)c2c(Br)cccc12` (stereo not drawn), the Emax was found to be 111%.

With `COc1cccc2c(C(=O)NCc3cccc(C)c3)cn(CCCN3C4CCC3CC(CC(=O)c3ccc(Cl)cc3)C4)c12` (stereo not drawn), the Emax was found to be 110%.

Take `COc1cccc2c(C(=O)NCc3cccc(C)c3)cn(CCCN3CCC(Oc4ccccc4Cl)CC3)c12`: the Emax came out at 96%.

Consider `COc1cccc2c(C(=O)NCc3cccc(C)c3)cn(CCCN3CCCN(CCc4ccccc4)CC3)c12`, for which the Emax turned out to be 110%.

On to `COc1cccc2c(C(=O)NCc3cccc(C)c3)cn(CCCN3CCCN(Cc4ccccc4Cl)CC3)c12`, for which the Emax was determined as 119%.

With `COc1cccc2c(C(=O)NCc3cccc(C)c3)cn(CCCN3CCCN(Cc4ccc(F)cc4)CC3)c12`, the Emax was 129%.

Consider `COc1cccc2c(C(C)=O)cn(CCCN3CCC(N(C4CC4)S(=O)(=O)c4ccccc4)CC3)c12`, for which the Emax is 105%.

On to `COc1cccc2c(C(=O)c3ccccc3)cn(CCCN3CCCN(CCc4ccccc4)CC3)c12`, for which the Emax is 124%.

Turning to `COc1cccc2c(C(=O)NCc3cccc(Cl)c3)cn(CCCN3CCCN(CCc4ccccc4)CC3)c12`, the Emax was 125%.

As to `COc1cccc2c(C(=O)C3CC3)cn(CCCN3CCN(CCOc4ccc(Cl)cc4)CC3)c12`, the Emax was determined as 122%.

Regarding `COc1cccc2c(C(C)=O)cn(CCCN3CCC(Oc4ccc(F)cc4)CC3)c12` [drawing 256], the Emax worked out at 119%.

Another assay addresses T1, GHSR1a receptor (Homo sapiens, UniProt Q92847).
T1 construct: expressed in transfected cells; host or cells: HEK293 (membranes)
Briefly: 125I-Ghrelin binding assay. The following applies: Binding pKi. The method, then:
Plasmid DNA containing the GHSR1a receptor (12.5 ug/dish) in 0.675 ml DMEM was transfected into the cells by mixing with 180 ul PolyFect, 15 min later mixing in 2.25 ml 10% CS/DMEM, and transferring the mixture into the dish. At 16-18 h post transfection, medium was replaced with 25 ml fresh 10% FCS/1% PSG/DMEM to each dish for another 18-20 h. At approximately 48 hours post-transfection, cells were harvested in ice-cold membrane buffer (20 mM HEPES, 6 mM MgCl2, 1 mM EDTA, pH to 7.2) using a cell scraper, and pelleted by centrifugation.
Pelleted cells were added to a nitrogen cavitation chamber and 900 bar of pressure applied for 30 min. The pressure was slowly released the cavitated cells collected in 50 ml falcon tubes. The tubes were centrifuged at 1000 rpm, 4° C. for 10 min, and the supernatant collected. This centrifugation and collection was repeated two more times until the supernatant was free of precipitate (membranes are still in suspension). The supernatant was poured into a 50 ml centrifuge tube and centrifuged at 10.000 rpm, 4° C. for 20 min. The supernatant was discarded and the pellet re-suspended in 750 μl membrane binding buffer using a chilled 1 ml syringe with 25G5/8 needle to re-suspend membranes. The protein concentration was determined using the BioRad Protein Assay Dye Reagent according to the manufacturers instructions. The protein concentration was adjusted to 5 mg/ml and aliquots snap-frozed and stored at −80 C until use.
Membranes were thawed rapidly; diluted with binding buffer (25 mM Hepes+5 mM MgCl2, 1 mM CaCl2, 2.5 mM EDTA and 0.2% BSA) to a protein concentration of 0.8 ug/30 ul and placed on ice. 96-well plates (U-bottom wells) were prepared with serial dilutions (8 doses, 40 ul/w) of the test compounds. Membranes (30 uL/well) were then added, and incubated with test ligands for 30 min at room temperature with shaking. […] Binding was terminated by filtration through GF/B filters (presoaked with 0.1% polyethylenimine) with a Brandel 96-well harvester. The filters were washed with ice-cold binding buffer (150 ml/plate) and allowed to air-dry for 30 min. 50 ul MicroScient-20 cocktail was added to each dried well, the plates were sealed, and counted for 2 min/well using a TopCount scintillation counter (Packard).
Compound `CCCCC1CCN(CCCn2cc(C(=O)NCc3cccc(Cl)c3)c3cccc(OC)c32)CC1` showed a Ki of 50.1 nM.

Still in this assay, the particulars now being: Binding pKi, displacement of 125I-ghrelin (0.053 nM), membranes of HEK293 cells transfected with GHSR1a; Cheng-Prussoff; '—' not defined.
With `COc1cccc2c(C(=O)NCc3cccc(C)c3)cn(CCCN3C4CCC3CC(Oc3ccc(Cl)cc3)C4)c12` (stereo not drawn), the Ki is 50.1 nM.

Take `COc1cccc2c(C(=O)C3CC3)cn(CCCN3CCCN(Cc4ccccc4Cl)CC3)c12`: the Ki is 7.94 nM.

As for `COc1cccc2c(C(=O)NCc3cccc(Cl)c3)cn(CCCN3C4CCC3CC(CCc3ccccc3)C4)c12` (stereo not drawn), the Ki was 7.94 nM.

Take `CCCCC1CCN(CCCn2cc(C(=O)C3CC3)c3cccc(OC)c32)CC1`: the Ki is 398 nM.

The compound `CCCCC1CCN(CCCn2cc(C(=O)c3ccccc3)c3cccc(OC)c32)CC1` showed an inhibition constant Ki of 200 nM.

As to `CC(=O)c1cn(CCCN2CCC(c3nc4ccccc4s3)CC2)c2c(Cl)cccc12`, affinity was put at a Ki of 398 nM.

Compound `COc1ccccc1C1CCN(CCCn2cc(C(=O)C3CC3)c3cccc(OC)c32)CC1` gave an inhibition constant Ki of 158 nM.

For the compound `COc1cccc2c(C(=O)NCC(C)C)cn(CCCN3C4CCC3CC(CC(=O)c3ccccc3)C4)c12` (stereo not drawn), the Ki is 50.1 nM.

As to `COc1cccc2c(C(=O)NCc3cccc(C)c3)cn(CCCN3CCC(Oc4ccc(Cl)cc4)CC3)c12`, the affinity, expressed as Ki, was 126 nM.

Consider `COc1cccc2c(C(=O)C3CC3)cn(CCCN3C4CCC3CC(CC(=O)c3ccc(Cl)cc3)C4)c12` (stereo not drawn), for which the Ki was 39.8 nM.

For `CC(=O)c1cn(CCCN2C3CCC2CC(CC(=O)c2ccccc2)C3)c2c(Br)cccc12` (stereo not drawn), the Ki is 100 nM.

For `COc1cccc2c(C(=O)NCc3cccc(C)c3)cn(CCCN3C4CCC3CC(CC(=O)c3ccc(Cl)cc3)C4)c12` (stereo not drawn), the affinity, expressed as Ki, was 15.8 nM.

Take `COc1cccc2c(C(=O)NCc3cccc(C)c3)cn(CCCN3CCC(Oc4ccccc4Cl)CC3)c12`: the Ki is 79.4 nM.

Take `COc1cccc2c(C(=O)NCc3cccc(C)c3)cn(CCCN3CCCN(CCc4ccccc4)CC3)c12`: the inhibition constant Ki was 15.8 nM.

Compound `COc1cccc2c(C(=O)NCc3cccc(C)c3)cn(CCCN3CCCN(Cc4ccccc4Cl)CC3)c12` had a Ki of 79.4 nM.

Compound `COc1cccc2c(C(=O)NCc3cccc(C)c3)cn(CCCN3CCCN(Cc4ccc(F)cc4)CC3)c12` showed a Ki of 100 nM.

`COc1cccc2c(C(C)=O)cn(CCCN3CCC(N(C4CC4)S(=O)(=O)c4ccccc4)CC3)c12` had a Ki of 2510 nM.

As to `COc1cccc2c(C(=O)c3ccccc3)cn(CCCN3CCCN(CCc4ccccc4)CC3)c12`, the affinity corresponds to a Ki of 25.1 nM.

In turn, `COc1cccc2c(C(=O)NCc3cccc(Cl)c3)cn(CCCN3CCCN(CCc4ccccc4)CC3)c12` gave a Ki of 158 nM.

On to `COc1cccc2c(C(=O)C3CC3)cn(CCCN3CCN(CCOc4ccc(Cl)cc4)CC3)c12`, for which the Ki is 126 nM.
